Data on 1 compound can be found in article PMC8289286, “In Silico, In Vitro, and In Vivo Evaluation of Precipitation Inhibitors in Supersaturated Lipid-Based Formulations of Venetoclax” (Molecular Pharmaceutics, 2021).

Data set [1] can be described thus: Biorelevant solubility in FaSSIF and FeSSIF. It counts as physicochemical. The method, then:
FaSSIF and fed state simulated intestinal fluid (FeSSIF) was prepared according to the instructions by biorelevant.com. FeSSIF was used directly, whereas FaSSIF was left at room temperature for 2 h prior to usage. Excess venetoclax was added to 2 mL of biorelevant media and placed in a water bath shaker at 200 shakes/min (GLS400, Grant Instruments, UK) and 37 °C. Samples were taken after 3, 6, and 24 h and centrifuged at 21,380g and 37 °C for 15 min (Mikro 200 R, Andreas Hettich GmbH & Co. KG, Germany). The supernatant was transferred to a new sample tube and centrifuged again under identical conditions. Subsequently, the supernatant was diluted with the mobile phase before analysis by HPLC.
The samples were analyzed using an Agilent 1200 series HPLC system (Agilent Technology Inc., US) that comprised a binary pump, degasser, autosampler, and variable wavelength detector. Data were analyzed using the software EZChrom Elite version 3.2. Venetoclax was separated from the sample matrix with a Zorbax Eclipse Plus-C18 column (5 μm, 4.6 mm × 150 mm) including a Zorbax Eclipse Plus-C18 guard column (5 μm, 4.6 mm × 12.5 mm) at 40 °C. The mobile phase consisted of (a) acetonitrile with 0.5% trifluoroacetic acid (TFA) and (b) water with 0.5% TFA at a ratio of 53:47 (a/b v/v) and was used at a flow rate of 1 mL/min. The injection volume was 20 μL and the detection wavelength was set to 316 nm. The limit of detection was 20 ng/mL and the limit of quantification (LOQ) was 65 ng/mL determined using the standard error of the y-intercept according to the International Council for Harmonization (ICH) Q2 guidelines.[34]

Data set [2] in a line: Venetoclax solubility in FaSSIF and FaSSIF with dissolved PI. It counts as physicochemical. The following applies: FaSSIF without PI, reference of the PI test. As to the method:
Additionally, the solubility of venetoclax was determined in FaSSIF with dissolved PI. […] 250 μL of samples were taken at 3, 6, and 24 h and filtered through a 0.2 μm syringe filter (Whatman Spartan 13/0.2), diluted with acetonitrile (containing 0.5% (v/v) TFA), and analyzed by HPLC as described above.

The conditions of data set [3]: cited from earlier work.
On the set-up of data set [4]: method as in PMID 28993217. Conditions: cited from earlier work.
For data set [5] the following is noted: cited from earlier work. The source holds these as a separate data set.

SMILES strings stand for the structures. ≈ marks a conversion by molar mass, not a printed value. Where two headings read alike, the source gives them in different places.

Turning to `CC1(C)CCC(CN2CCN(c3ccc(C(=O)NS(=O)(=O)c4ccc(NCC5CCOCC5)c([N+](=O)[O-])c4)c(Oc4cnc5[nH]ccc5c4)c3)CC2)=C(c2ccc(Cl)cc2)C1` [venetoclax], the “share of a 100 mg dose dissolved in 250 mL gastrointestinal fluid at FaSSIF solubility” value in data set [1] (FaSSIF, 100 mg dose in 250 mL) is 1.7%. In addition, the solubility (in general, the dissolved amount per volume that the medium holds) in data set [1] (FaSSIF, 37 °C, n = 3) worked out at 6.8 ± 1.8 µg/mL (≈ 7.83 µM); in data set [2], 5.2 ± 0.4 µg/mL (≈ 5.99 µM). For the same compound, the “solubility increase in the fed state (FeSSIF) over FaSSIF” value in data set [1] (FeSSIF vs FaSSIF, 37 °C) worked out at 3.9 fold. Further, the “share of a 100 mg dose dissolved at FeSSIF solubility” value in data set [1] (FeSSIF, 100 mg dose) is 6.7%. Further, in data set [3], the “previously reported venetoclax bioavailability in fasted pigs” value is recorded as 17.3 ± 5.5%. In addition, the “amorphous solubility in FaSSIF” value is 20.7 ± 0.5 µg/mL in data set [4] (pH 5.3) and 33.7 ± 13.5 µg/mL in data set [4] (pH 6.9). Also, the “amorphous solubility in FeSSIF” value in data set [4] (FeSSIF, pH 5.3) was 26.4 ± 0.2 µg/mL; in data set [4] (FeSSIF, pH 6.9) it was 54.6 ± 2.0 µg/mL. Besides, the “reported amorphous solubility in FeSSIF” value in data set [4] (FeSSIF) is 26.4 to 54.6 µg/mL. The BCS classification entry in data set [5] (based on low aqueous solubility and permeability) is “BCS class IV”. The log P (as a rule, the decadic logarithm of the partition coefficient of the neutral form, usually between octanol and water) in data set [5] is recorded as 5.5.
